This is an account of results in patent publication US11590242B2, “Antibody-mediated autocatalytic, targeted delivery of nanocarriers to tumors” (Yale University, priority 2016, dated 2023).

Data set [1] in a line: Blood concentrations of DOX-NPs with and without 3E10^EN as a function of time. Type of data set: in vivo, BALB/c mice. The following applies: 1 mg DOX-NPs i.v., coumarin 6 co-loaded, 5 min-48 h. How it is done: Blood concentrations of DOX-NPs with and without conjugation of 3E10^EN recorded as a function of time. To enable detection of NPs, NPs were co-loaded with 1% coumarin 6. Six BALB/c mice were randomly assigned to two groups, which received intravenous administration of 1 mg DOX-NPs with and without conjugation of 3E10^EN, respectively. At 5 min, 15 min, 30 min, 1 h, 2 h, 4 h, 6 h, 24 h, 36 h and 48 h post injection, 20 uL blood sample from each mouse was collected into a 1.5 mL Eppendorf tube and lyophilized. Then, 100 uL DMSO and 1 mL acetonitrile were added to each tube. After sonication in a water bath sonicator for 15 min, samples were subjected to centrifugation at 4000 rpm for 20 min to remove cellular fragments and blood albumin. Then, 0.8 ml supernatant from each sample was collected and added to an eppendorf tube. The acetonitrile was evaporated and the dye in the DMSO was quantified at Ex/Em 444/505 nm using a plate reader (BioTek ELx800).

The test system of data set [2] is Cal12T lung cancer cells. Briefly: Delivery of nanoparticles into living cells (fluorescence microscopy, anti-myc immunostaining). Type of data set: cell-based. The note with it: fixed cells.
The test system of data set [3] is 4T1 murine breast cancer cells. Briefly: Cytotoxicity evaluation, MTT assay. Type of data set: cell-based, mouse. The note with it: three days treatment, listed as Free DOX. How it is done:
All chemicals were purchased from Sigma-Aldrich unless otherwise noted. The mouse mammary tumor cell line 4T1 was obtained from American Type Culture Collection (ATCC) and cultured in DMEM medium (Invitrogen) supplemented with 10% fetal bovine serum (Invitrogen), 100 units/ml penicillin and 100 ug/ml streptomycin (Invitrogen), in a 37° C. incubator containing 5% CO2.
4T1 cells were plated in a 96-well cell culture plate at a concentration of 2×10^3 per well and incubated with concentrations of nanoparticles ranging from 1.25 to 500 ug/mL. The same amounts of free DOX were added to parallel wells as controls. Three days after treatment, the effect of treatments on cell proliferation was determined using the standard MTT assay.

Data set [4] deals with 4T1 tumors. Briefly: Antitumor evaluation in mouse tumor xenografts. Format: in vivo, mice. The following applies: end of study, vs PBS control, i.v. three times a week. How it is done: Mice bearing 4T1 tumors were established as described above. […] Treatment was performed 3 times per week. Nanoparticles were administered at 1 mg, equal to 80 ug DOX per mouse. Tumor sizes were measured three times a week. Mice were euthanized when tumor volume reached 1000 mm^3, at which point the tumors were excised and fixed in formalin for immunohistochemistry. Serial sections were obtained and stained with hematoxylin and eosin (H&E) and Terminal Deoxynucleotidyl Transferase (TUNEL) for analysis of therapeutic effect. The growth curve was plotted using the mean of the tumor volumes for each treatment group, at each timepoint.

Turning to “3E10^EN: enhanced di-single chain variable fragment of anti-DNA antibody 3E10 with D31N mutation, SEQ ID NO:12”, the “Circulation life of NPs” value in data set [1] is “did not alter the circulation life of NPs”. For the same compound, in data set [2], the “Subcellular localization of di-scFv” value is reported as “penetrated into cell nuclei”.

In the case of `COc1cccc2c1C(=O)c1c(O)c3c(c(O)c1C2=O)C[C@@](O)(C(=O)CO)C[C@@H]3O[C@H]1C[C@H](N)[C@H](O)[C@H](C)O1` [DOX, doxorubicin], the “Effect on viability of 4T1 cells” value in data set [3] is recorded as “comparable inhibition of cells”. The “Reduction of tumor volume” value in data set [4] is on record as 26%.
